Assay [1] addresses LRRK2, WT (GST-tagged truncated LRRK2) (Homo sapiens, UniProt Q5S007). Nature of the assay: LRRK2 kinase assay (LanthaScreen), wild type. It counts as biochemical. Put shortly: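 GST-tagged truncated enzyme (2 μg/mL) phosphorylates 100 nM fluorescein-LRRKtide with 1 mM ATP in HEPES pH 7.5, 3 mM MgCl2, DTT, Brij35; 30 min, room temperature, compound dose response top 3 μM. Stopped with EDTA; phospho-ERM detected by terbium anti-phospho-ERM TR-FRET; identical conditions for both enzymes.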

A further assay concerns the target mutant G2019S LRRK2 (Homo sapiens (Human), UniProt Q5S007, G2019S). Nature of the assay: LRRK2 kinase assay (LanthaScreen), G2019S mutant. The following applies: G2019S mutant LRRK2, read-out: LRRK2, G2019S IC50. The class given is biochemical. Here is the method:
LRRK2 kinase activity was measured using Lantha Screen technology from Invitrogen. GST-tagged truncated LRRK2 from Invitrogen (Cat #PV4874) was incubated with a fluorescein-labeled peptide substrate based upon ezrin/radixin/moesin (ERM), also known as LRRKtide (Invitrogen cat #PR8976A), in the presence of a dose response of compound. Upon completion, the assay was stopped and detected with a terbium labeled anti-phospho-ERM antibody (Invitrogen, cat #PR8975A). […] Using Echo acoustic dispensing, 60 nL of compound was transferred to a low volume Corning 384-well assay plate. 3 μL of a working solution of substrate (200 nM LRRKtide, 2 mM ATP) prepared in assay buffer (50 mM HEPES, pH 7.5, 3 mM MgCl2, with 2 mM DTT and 0.01% Brij35 added fresh) was added to the 60 nL compound assay plate. The kinase reaction was started with 3 μL of a working solution of LRRK2 enzyme at a concentration of 4 μg/m L. The final reaction concentrations were 100 nM LRRKtide, 1 mM ATP, 2 μg/mL LRRK2 enzyme and a compound dose response with a top dose of 3 μM. The reaction was allowed to progress at room temperature for 30 minutes and then stopped with the addition of 6 μL of detection buffer (20 mM Tris pH 7.6, 0.01% NP-40, 6 mM EDTA with 2 nM terbium labeled antiphospho-ERM). […] All final concentrations of substrate ATP and enzyme were the same.

[2] abbreviates: wild type LRRK2, LanthaScreen, LRRKtide substrate.
Setting [3] is: LanthaScreen, LRRKtide substrate.

Molecules are shown by their SMILES. Where two headings read alike, the source gives them in different places.

Chain of mutant G2019S LRRK2 (Q5S007 whole entry G2019S, the tested form may be a part): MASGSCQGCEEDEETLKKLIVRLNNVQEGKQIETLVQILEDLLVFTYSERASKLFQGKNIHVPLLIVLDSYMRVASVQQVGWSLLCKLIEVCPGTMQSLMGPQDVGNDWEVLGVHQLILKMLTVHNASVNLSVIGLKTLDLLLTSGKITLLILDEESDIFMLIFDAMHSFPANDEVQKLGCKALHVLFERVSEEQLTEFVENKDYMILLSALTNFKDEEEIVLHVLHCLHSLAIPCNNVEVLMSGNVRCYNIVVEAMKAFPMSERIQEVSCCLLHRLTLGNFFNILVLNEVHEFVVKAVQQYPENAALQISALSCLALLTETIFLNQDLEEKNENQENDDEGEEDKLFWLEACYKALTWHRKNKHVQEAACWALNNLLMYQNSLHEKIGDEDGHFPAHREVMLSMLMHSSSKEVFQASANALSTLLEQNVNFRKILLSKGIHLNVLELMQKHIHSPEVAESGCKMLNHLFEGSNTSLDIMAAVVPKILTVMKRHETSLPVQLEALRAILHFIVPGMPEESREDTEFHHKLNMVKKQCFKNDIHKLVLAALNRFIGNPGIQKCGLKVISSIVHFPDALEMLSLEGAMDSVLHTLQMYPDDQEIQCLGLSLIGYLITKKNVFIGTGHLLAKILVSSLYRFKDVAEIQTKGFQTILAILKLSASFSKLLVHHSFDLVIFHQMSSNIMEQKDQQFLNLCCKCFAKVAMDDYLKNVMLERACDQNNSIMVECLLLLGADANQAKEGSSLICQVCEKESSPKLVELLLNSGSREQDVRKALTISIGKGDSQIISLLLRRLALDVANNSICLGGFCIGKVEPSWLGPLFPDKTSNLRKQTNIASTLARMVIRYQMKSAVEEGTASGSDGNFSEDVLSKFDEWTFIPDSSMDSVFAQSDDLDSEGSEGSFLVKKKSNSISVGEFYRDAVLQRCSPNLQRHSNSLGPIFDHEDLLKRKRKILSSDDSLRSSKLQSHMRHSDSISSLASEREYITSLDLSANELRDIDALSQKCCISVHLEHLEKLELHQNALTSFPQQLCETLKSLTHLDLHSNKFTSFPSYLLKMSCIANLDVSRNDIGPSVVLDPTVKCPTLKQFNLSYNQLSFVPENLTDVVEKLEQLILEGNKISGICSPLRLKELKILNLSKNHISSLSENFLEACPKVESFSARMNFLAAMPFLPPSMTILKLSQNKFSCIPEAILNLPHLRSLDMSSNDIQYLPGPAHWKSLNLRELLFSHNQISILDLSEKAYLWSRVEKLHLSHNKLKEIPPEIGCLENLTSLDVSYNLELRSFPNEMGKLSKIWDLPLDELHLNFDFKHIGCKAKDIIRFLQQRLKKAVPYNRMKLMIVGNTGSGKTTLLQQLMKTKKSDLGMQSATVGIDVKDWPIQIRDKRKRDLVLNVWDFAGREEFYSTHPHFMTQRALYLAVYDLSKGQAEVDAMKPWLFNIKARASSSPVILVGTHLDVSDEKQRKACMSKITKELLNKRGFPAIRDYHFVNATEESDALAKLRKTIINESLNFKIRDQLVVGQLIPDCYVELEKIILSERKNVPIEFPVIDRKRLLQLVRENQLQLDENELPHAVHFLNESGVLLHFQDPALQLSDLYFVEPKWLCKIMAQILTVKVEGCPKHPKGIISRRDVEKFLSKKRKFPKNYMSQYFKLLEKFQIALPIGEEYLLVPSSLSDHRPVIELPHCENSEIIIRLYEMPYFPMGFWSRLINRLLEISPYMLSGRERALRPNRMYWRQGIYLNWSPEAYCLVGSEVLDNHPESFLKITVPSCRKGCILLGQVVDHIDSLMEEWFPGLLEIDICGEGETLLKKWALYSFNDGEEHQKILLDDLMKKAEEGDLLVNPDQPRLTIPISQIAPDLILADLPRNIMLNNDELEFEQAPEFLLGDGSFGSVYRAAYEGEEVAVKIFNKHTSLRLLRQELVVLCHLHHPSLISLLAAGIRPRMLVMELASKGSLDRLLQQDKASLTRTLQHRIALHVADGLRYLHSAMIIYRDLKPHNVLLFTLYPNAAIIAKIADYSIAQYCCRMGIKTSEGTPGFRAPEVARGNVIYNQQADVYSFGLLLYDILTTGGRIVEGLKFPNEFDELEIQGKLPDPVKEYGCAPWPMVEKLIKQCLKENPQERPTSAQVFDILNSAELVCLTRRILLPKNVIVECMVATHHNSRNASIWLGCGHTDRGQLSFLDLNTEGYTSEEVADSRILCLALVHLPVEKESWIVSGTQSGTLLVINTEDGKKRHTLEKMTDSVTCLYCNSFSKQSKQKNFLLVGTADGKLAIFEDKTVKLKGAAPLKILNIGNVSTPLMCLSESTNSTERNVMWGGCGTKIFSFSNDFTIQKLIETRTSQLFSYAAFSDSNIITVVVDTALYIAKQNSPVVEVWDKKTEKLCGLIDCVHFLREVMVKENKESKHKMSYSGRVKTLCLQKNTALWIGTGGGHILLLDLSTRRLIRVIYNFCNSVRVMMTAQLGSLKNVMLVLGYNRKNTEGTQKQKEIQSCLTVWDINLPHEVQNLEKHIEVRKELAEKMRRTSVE

With `COc1cnn(Cc2nc3cnc4ccc(C#N)cc4c3n2[C@@H]2CCO[C@H](C)C2)c1` [Example 57, 2-[(4-methoxy-1H-pyrazol-1-yl)methyl]-1-[(2R,4R)-2-methyltetrahydro-2H-pyran-4-yl]-1H-imidazo[4,5-c]quinoline-8-carbonitrile], the IC50 in assay [1] (setting [2]) is 7.43 nM; at mutant G2019S LRRK2 (setting [3]), 5.4 nM.

Consider `C[C@@H]1C[C@H](n2c(Cn3cncn3)nc3cnc4ccc(C(F)(F)F)cc4c32)CCO1` [Example 66, 1-[(2R,4R)-2-methyltetrahydro-2H-pyran-4-yl]-2-(1H-1,2,4-triazol-1-ylmethyl)-8-(trifluoromethyl)-1H-imidazo[4,5-c]quinoline], for which the IC50 in assay [1] (setting [2]) was 8.32 nM; at mutant G2019S LRRK2 (setting [3]), 8.01 nM.

As for `Cc1nc(Cc2nc3cnc4ccc(Cl)cc4c3n2C2CN(C)CC2(F)F)no1` (stereo not shown) [Example 88, 8-chloro-1-(4,4-difluoro-1-methylpyrrolidin-3-yl)-2-[(5-methyl-1,2,4-oxadiazol-3-yl)methyl]-1H-imidazo[4,5-c]quinoline], the IC50 in assay [1] (setting [2]) came to 9.25 nM; at mutant G2019S LRRK2 (setting [3]), 8.16 nM.

On to `Cc1cc(Cc2nc3cnc4ccc(Cl)cc4c3n2C2CCOC(C(F)F)C2)no1` (stereo not drawn) [Example 59, 8-chloro-1-[cis-2-(difluoromethyl)tetrahydro-2H-pyran-4-yl]-2-[(5-methyl-1,2-oxazol-3-yl)methyl]-1H-imidazo[4,5-c]quinoline], for which the half-maximal inhibitory concentration (IC50) in assay [1] (setting [2]) is 6.6 nM; on mutant G2019S LRRK2 (setting [3]), 8.16 nM.

As to `Cc1cnc(Cc2nc3cnc4ccc(Cl)cc4c3n2C2CN(C)CC2(F)F)cn1` (stereo not shown) [Example 50, 8-chloro-1-(4,4-difluoro-1-methylpyrrolidin-3-yl)-2-[(5-methylpyrazin-2-yl)methyl]-1H-imidazo[4,5-c]quinoline], the IC50 was 5.06 nM in assay [1] (setting [2]) and 1.11 nM on mutant G2019S LRRK2 (setting [3]).

Take `CN1CC(n2c(Cn3cnnn3)nc3cnc4ccc(Cl)cc4c32)C(F)(F)C1` (stereo not shown) [Example 86, 8-chloro-1-(4,4-difluoro-1-methylpyrrolidin-3-yl)-2-(1H-tetrazol-1-ylmethyl)-1H-imidazo[4,5-c]quinoline]: the IC50 in assay [1] (setting [2]) was 6.66 nM; on mutant G2019S LRRK2 (setting [3]), 4.4 nM.

As to `Cc1cnc(Cc2nc3cnc4ccc(C#N)cc4c3n2[C@@H]2CCN(C)C2)cn1` [Example 33, 2-[(5-methylpyrazin-2-yl)methyl]-1-[(3R)-1-methylpyrrolidin-3-yl]-1H-imidazo[4,5-c]quinoline-8-carbonitrile], the IC50 in assay [1] (wild type LRRK2, data obtained using the formate salt of the Example) is 8.35 nM; at mutant G2019S LRRK2 (data obtained using the formate salt of the Example) it was 6.82 nM.

On to `Cc1nnc(Cc2nc3cnc4ccc(Cl)cc4c3n2C2CN(C)CC2(F)F)s1` (stereo not shown) [Example 89, 8-chloro-1-(4,4-difluoro-1-methylpyrrolidin-3-yl)-2-[(5-methyl-1,3,4-thiadiazol-2-yl)methyl]-1H-imidazo[4,5-c]quinoline], for which the values for the IC50 (in assay [1] (setting [2]); on mutant G2019S LRRK2 (setting [3])) were 13.9 nM and 8.03 nM, respectively.

With `Cc1nc(Cc2nc3cnc4ccc(C#N)cc4c3n2C2CN(C)CC2(F)F)no1` (stereo not shown) [Example 32, 1-(4,4-difluoro-1-methylpyrrolidin-3-yl)-2-[(5-methyl-1,2,4-oxadiazol-3-yl)methyl]-1H-imidazo[4,5-c]quinoline-8-carbonitrile], the IC50 in assay [1] (setting [2]) came to 4.59 nM; at mutant G2019S LRRK2 (setting [3]), 5.98 nM.

Regarding `Cc1cn(Cc2nc3cnc4ccc(Cl)cc4c3n2C2CCOCC2(F)F)nn1` (stereo not shown) [Example 46, 8-chloro-1-(3,3-difluorotetrahydro-2H-pyran-4-yl)-2-[(4-methyl-1H-1,2,3-triazol-1-yl)methyl]-1H-imidazo[4,5-c]quinoline], the results for the concentration for half-maximal inhibition (IC50) (in assay [1] (setting [2]); on mutant G2019S LRRK2 (setting [3])) were 9.31 nM and 7.66 nM, respectively.

In the case of `Cc1nnc(Cc2nc3cnc4ccc(Cl)cc4c3n2C2CCOCC2(F)F)s1` (stereo not shown) [Example 92, 8-chloro-1-(3,3-difluorotetrahydro-2H-pyran-4-yl)-2-[(5-methyl-1,3,4-thiadiazol-2-yl)methyl]-1H-imidazo[4,5-c]quinoline], the IC50 in assay [1] (setting [2]) was 10.9 nM; on mutant G2019S LRRK2 (setting [3]), 6.91 nM.

With `FC1(F)COCCC1n1c(Cn2cncn2)nc2cnc3ccc(Cl)cc3c21` (stereo not shown) [Example 93, 8-chloro-1-(3,3-difluorotetrahydro-2H-pyran-4-yl)-2-(1H-1,2,4-triazol-1-ylmethyl)-1H-imidazo[4,5-c]quinoline], the IC50 in assay [1] (LanthaScreen, LRRKtide substrate, 1 mM ATP) came to 11 nM; in assay [1] (setting [2]), 11.9 nM; on mutant G2019S LRRK2 (setting [3]) it was 8.7 nM.

For the molecule `Cc1nnc(Cc2nc3cnc4ccc(C(F)(F)F)cc4c3n2[C@@H]2CCO[C@H](C)C2)s1` [Example 74, 1-[(2R,4R)-2-methyltetrahydro-2H-pyran-4-yl]-2-[(5-methyl-1,3,4-thiadiazol-2-yl)methyl]-8-(trifluoromethyl)-1H-imidazo[4,5-c]quinoline], the IC50 in assay [1] (setting [2]) was 26.1 nM; at mutant G2019S LRRK2 (setting [3]), 13.5 nM.

As to `C[C@@H]1C[C@H](n2c(CCC#N)nc3cnc4ccc(Cl)cc4c32)CCO1` [Example 80, 3-{8-chloro-1-[(2R,4R)-2-methyltetrahydro-2H-pyran-4-yl]-1H-imidazo[4,5-c]quinolin-2-yl}propanenitrile], the IC50 is 9.4 nM in assay [1] (setting [2]) and 11.3 nM on mutant G2019S LRRK2 (setting [3]).

For the molecule `Cc1nn2cc(Cc3nc4cnc5ccc(F)cc5c4n3[C@@H]3CCO[C@H](C)C3)nc2s1` [Example 28, 8-fluoro-2-[(2-methylimidazo[2,1-b][1,3,4]thiadiazol-6-yl)methyl]-1-[(2R,4R)-2-methyltetrahydro-2H-pyran-4-yl]-1H-imidazo[4,5-c]quinoline], the IC50 in assay [1] (setting [2]) was determined as 7.18 nM; at mutant G2019S LRRK2 (setting [3]) it was 4.59 nM.

`C[C@@H]1C[C@H](n2c(C3CCCC3)nc3cnc4ccc(C#N)cc4c32)CCO1` [Example 30, 2-cyclopentyl-1-[(2R,4R)-2-methyltetrahydro-2H-pyran-4-yl]-1H-imidazo[4,5-c]quinoline-8-carbonitrile]: the IC50 in assay [1] (setting [2]) was 20.6 nM; on mutant G2019S LRRK2 (setting [3]), 22 nM.

In the case of `COc1cnn(Cc2nc3cnc4ccc(Cl)cc4c3n2CC(C)(F)F)c1` [Example 72, 8-chloro-1-(2,2-difluoropropyl)-2-[(4-methoxy-1H-pyrazol-1-yl)methyl]-1H-imidazo[4,5-c]quinoline], the IC50 stood at 12.1 nM in assay [1] (setting [2]) and 7.17 nM on mutant G2019S LRRK2 (setting [3]).

Take `COCc1cn(Cc2nc3cnc4ccc(Cl)cc4c3n2C2CCOCC2(F)F)nn1` (stereo not shown) [Example 55, 8-chloro-1-(3,3-difluorotetrahydro-2H-pyran-4-yl)-2-{[4-(methoxymethyl)-1H-1,2,3-triazol-1-yl]methyl}-1H-imidazo[4,5-c]quinoline]: the results for the IC50 (in assay [1] (setting [2]); on mutant G2019S LRRK2 (setting [3])) were 11.3 nM and 6.49 nM, respectively.

With `Cc1cn(Cc2nc3cnc4ccc(Cl)cc4c3n2C2CN(C)CC2(F)F)nn1` (stereo not shown) [Example 48, 8-chloro-1-(4,4-difluoro-1-methylpyrrolidin-3-yl)-2-[(4-methyl-1H-1,2,3-triazol-1-yl)methyl]-1H-imidazo[4,5-c]quinoline], the IC50 in assay [1] (setting [2]) was determined as 3.27 nM; on mutant G2019S LRRK2 (setting [3]), 0.938 nM.

On to `N#Cc1ccc2ncc3nc(Cc4nc5ccccc5o4)n([C@@H]4CC[C@H](F)C4)c3c2c1` (relative stereo) [Example 65, 2-(1,3-benzoxazol-2-ylmethyl)-1-[cis-3-fluorocyclopentyl]-1H-imidazo[4,5-c]quinoline-8-carbonitrile], for which the IC50 turned out to be 8.56 nM in assay [1] (setting [2]) and 6.33 nM at mutant G2019S LRRK2 (setting [3]).

`Cc1nc2cnc3ccc(Cl)cc3c2n1C1CCOC(CC#N)C1` (stereo not drawn) [Example 31, [cis-4-(8-chloro-2-methyl-1H-imidazo[4,5-c]quinolin-1-yl)tetrahydro-2H-pyran-2-yl]acetonitrile]: the IC50 in assay [1] (setting [2]) came to 7.86 nM; at mutant G2019S LRRK2 (setting [3]), 8.67 nM.

Consider `Cc1nnc(Cc2nc3cnc4ccc(C(F)(F)F)cc4c3n2[C@@H]2CCO[C@H](C)C2)o1` [Example 70, 2-[(5-methyl-1,3,4-oxadiazol-2-yl)methyl]-1-[(2R,4R)-2-methyltetrahydro-2H-pyran-4-yl]-8-(trifluoromethyl)-1H-imidazo[4,5-c]quinoline], for which the figures for the IC50 (in assay [1] (setting [2]); at mutant G2019S LRRK2 (setting [3])) were 13.7 nM and 7.59 nM, respectively.

Consider `Cc1nnn(Cc2nc3cnc4ccc(C#N)cc4c3n2[C@@H]2CCN(C)C2)n1` [Example 34, 1-[(3R)-1-methylpyrrolidin-3-yl]-2-[(5-methyl-2H-tetrazol-2-yl)methyl]-1H-imidazo [4,5-c]quinoline-8-carbonitrile], for which the IC50 in assay [1] (setting [2]) is 5.53 nM; on mutant G2019S LRRK2 (setting [3]) it was 5.04 nM.

`Cc1cn(Cc2nc3cnc4ccc(Cl)cc4c3n2[C@@H]2CCN(C)C2)nn1` [Example 62, 8-chloro-1-[(3R)-1-methylpyrrolidin-3-yl]-2-[(4-methyl-1H-1,2,3-triazol-1-yl)methyl]-1H-imidazo[4,5-c]quinoline]: the concentration for half-maximal inhibition (IC50) in assay [1] (setting [2]) is 5.78 nM; on mutant G2019S LRRK2 (setting [3]) it was 6.5 nM.
